Results as given in patent publication EP2149558A1, “5-[(3,3,3-Trifluoro-2-hydroxy-1-arylpropyl)amino-1-arylquinolin-2-ones, a process for their production and their use as anti-inflammatory agents” (Bayer Schering Pharma Aktiengesellschaft, priority 2008, dated 2010).

Test system: secretion of cytokine IL-8 into the human monocyte cell line THP-1
Test: inhibition of LPS-triggered IL-8 secretion in THP-1 cells (ELISA of supernatant)
Type: cell-based
Description: As an essential, molecular mechanism for the anti-inflammatory action of glucocorticoids, the GR-mediated inhibition of the transcription of cytokines, adhesion molecules, enzymes and other pro-inflammatory factors is considered. This inhibition is produced by an interaction of the GR with other transcription factors, e.g., AP-1 and NF-kappa-B (for a survey, see Cato, A. C. B., and Wade, E., BioEssays 18, 371-378, 1996).
The concentration of the cytokines was determined in the supernatant by means of commercially available ELISA kits.

IC50 (Homo sapiens, inhibition of LPS-triggered IL-8 secretion, THP-1 cells, read-out: IC50(IL8)): 0.31 nM
SMILES: COCC(O)(C(Nc1cc(F)cc2c1ccc(=O)n2-c1ccc(F)nc1)c1ccc(OC)c(F)c1Cl)C(F)(F)F (centres unmarked) [Example 2, 5-{[1-(2-Chloro-3-fluoro-4-methoxyphenyl)-3,3,3-trifluoro-2-hydroxy-2-(methoxymethyl)propyl]amino}-7-fluoro-1-(6-fluoropyridin-3-yl)-1H-quinolin-2-one]
efficacy (IL-8 inhibition, in comparison with dexamethasone as reference): 107%
